How the values were obtained:
Experiment in all cases: relative viability (nuclei count vs DMSO), 5 days (fraction); higher = more cells survive
Doxorubicin + Navitoclax = compound: COc1cccc2c1C(=O)c1c(O)c3c(c(O)c1C2=O)C[C@@](O)(C(=O)CO)C[C@@H]3O[C@H]1C[C@H](N)[C@H](O)[C@H](C)O1 [Doxorubicin] + CC1(C)CCC(c2ccc(Cl)cc2)=C(CN2CCN(c3ccc(C(=O)NS(=O)(=O)c4ccc(N[C@H](CCN5CCOCC5)CSc5ccccc5)c(S(=O)(=O)C(F)(F)F)c4)cc3)CC2)C1 [Navitoclax] (partner 0.5 µM)
Summary of the method: (§1)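 Relative viability is defined as nuclei in treated wells over nuclei in vehicle wells. Duplicate plates were run and medians reported. Lung cancer cell lines in 1536-well plates were dosed by pin tool one day after seeding, with one drug or with a fixed anchor-drug dose plus five library-drug doses (not always all listed) in √10 steps, and nuclei were counted after 5 days.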

BAY61-3606 + Phenformin = compound: COC1=C(C=C(C=C1)C2=CC3=NC=CN3C(=N2)NC4=C(C=CC=N4)C(=O)N)OC [BAY61-3606] + N=C(N)NC(=N)NCCc1ccccc1 [Phenformin] (partner 250 µM)
Summary of the method: as §1

BAY61-3606 + Trametinib = compound: COC1=C(C=C(C=C1)C2=CC3=NC=CN3C(=N2)NC4=C(C=CC=N4)C(=O)N)OC [BAY61-3606] + CC(=O)Nc1cccc(-n2c(=O)n(C3CC3)c(=O)c3c(Nc4ccc(I)cc4F)n(C)c(=O)c(C)c32)c1 [Trametinib] (partner 0.02 µM)
Summary of the method: as §1

BAY61-3606 + Decitabine = compound: COC1=C(C=C(C=C1)C2=CC3=NC=CN3C(=N2)NC4=C(C=CC=N4)C(=O)N)OC [BAY61-3606] + Nc1ncn([C@H]2C[C@H](O)[C@@H](CO)O2)c(=O)n1 [Decitabine] (partner 2 µM)
Summary of the method: as §1

| Cell Line | relative viability (Doxorubicin + Navitoclax; first compound 0.001 µM) | relative viability (Doxorubicin + Navitoclax; first compound 0.003162 µM) | relative viability (Doxorubicin + Navitoclax; first compound 0.01 µM) | relative viability (Doxorubicin + Navitoclax; first compound 0.03162 µM) | relative viability (Doxorubicin + Navitoclax; first compound 0.1 µM) | relative viability (BAY61-3606 + Phenformin; first compound 0.02 µM) | relative viability (BAY61-3606 + Phenformin; first compound 0.06325 µM) | relative viability (BAY61-3606 + Phenformin; first compound 0.2 µM) | relative viability (BAY61-3606 + Phenformin; first compound 0.6325 µM) | relative viability (BAY61-3606 + Phenformin; first compound 2 µM) | relative viability (BAY61-3606 + Trametinib; first compound 0.02 µM) | relative viability (BAY61-3606 + Trametinib; first compound 0.06325 µM) | relative viability (BAY61-3606 + Trametinib; first compound 0.2 µM) | relative viability (BAY61-3606 + Trametinib; first compound 0.6325 µM) | relative viability (BAY61-3606 + Trametinib; first compound 2 µM) | relative viability (BAY61-3606 + Decitabine; first compound 0.02 µM) | relative viability (BAY61-3606 + Decitabine; first compound 0.06325 µM) | relative viability (BAY61-3606 + Decitabine; first compound 0.2 µM) | relative viability (BAY61-3606 + Decitabine; first compound 0.6325 µM) | relative viability (BAY61-3606 + Decitabine; first compound 2 µM) |
| --- | --- | --- | --- | --- | --- | --- | --- | --- | --- | --- | --- | --- | --- | --- | --- | --- | --- | --- | --- | --- |
| 201T | 1.16 | 1.19 | 1.2 | 1.24 | 1.21 | 0.461 | 0.425 | 0.449 | 0.511 | 0.444 | 0.728 | 0.712 | 0.771 | 0.753 | 0.735 | 0.87 | 0.923 | 0.864 | 0.896 | 0.834 |
| HCC-78 | 0.41 | 0.689 | 0.753 | 0.692 | 0.768 | 0.769 | 0.719 | 0.688 | 0.848 | 0.915 | 0.763 | 0.745 | 0.738 | 0.836 | 0.859 | 0.643 | 0.676 | 0.798 | 0.722 | 0.857 |
| NCI-H727 | 0.402 | 0.474 | 0.492 | 0.462 | 0.455 | 0.68 | 0.554 | 0.542 | 0.553 | 0.541 | 0.392 | 0.382 | 0.423 | 0.42 | 0.387 | 0.8 | 0.8 | 0.947 | 0.981 | 0.895 |
| H3255 | 0.603 | 0.617 | 0.53 | 0.457 | 0.289 | 0.351 | 0.342 | 0.371 | 0.399 | 0.342 | 0.688 | 0.538 | 0.598 | 0.715 | 0.587 | 0.529 | 0.571 | 0.677 | 0.779 | 0.509 |
| NCI-H838 | 1.12 | 1.17 | 1.12 | 0.905 | 0.423 | 0.628 | 0.489 | 0.621 | 0.388 | 0.277 | 0.54 | 0.496 | 0.547 | 0.575 | 0.362 | 0.448 | 0.508 | 0.47 | 0.454 | 0.393 |
| NCI-H2085 | 1.28 | 1.24 | 1.09 | 0.882 | 1.01 | 0.793 | 0.755 | 0.717 | 0.757 | 0.64 | 0.666 | 0.45 | 0.511 | 0.59 | 0.42 | 0.531 | 0.528 | 0.555 | 0.531 | 0.53 |
| NCI-H2405 |  | 0.779 | 0.851 | 0.639 | 0.493 | 0.429 | 0.259 | 0.383 | 0.38 | 0.41 | 0.637 | 0.559 | 0.711 | 0.728 | 0.518 | 0.798 | 0.78 | 0.703 | 0.779 | 0.643 |
| NCI-H2170 | 0.584 | 0.726 | 0.567 | 0.389 | 0.597 | 0.399 | 0.356 | 0.434 | 0.401 | 0.385 | 0.859 | 0.879 | 0.907 | 0.916 | 0.762 | 0.449 | 0.529 | 0.485 | 0.462 | 0.429 |
| NCI-H1944 | 1.05 | 1.13 | 1.03 | 0.977 | 1.19 | 0.211 | 0.196 | 0.193 | 0.201 | 0.182 | 0.469 | 0.392 | 0.405 | 0.369 | 0.299 | 0.408 | 0.466 | 0.424 | 0.434 | 0.327 |
| EKVX | 0.929 | 1.09 | 1 | 0.853 | 0.61 | 0.239 | 0.228 | 0.221 | 0.222 | 0.234 | 0.497 | 0.308 | 0.303 | 0.361 | 0.365 | 0.362 | 0.344 | 0.318 | 0.349 | 0.328 |
| SK-MES-1 | 1.28 | 0.745 | 1.09 | 1.01 | 0.76 | 0.729 | 0.586 | 0.633 | 0.685 | 0.57 | 0.619 | 0.541 | 0.518 | 0.579 | 0.503 | 0.37 | 0.342 | 0.377 | 0.382 | 0.348 |
| EPLC-272H | 1.11 | 1.37 | 0.971 | 1.11 | 1.05 | 0.254 | 0.294 | 0.312 | 0.303 | 0.228 | 0.309 | 0.275 | 0.281 | 0.294 | 0.263 | 0.409 | 0.403 | 0.369 | 0.396 | 0.33 |
| NCI-H1650 | 1.11 | 1.18 | 1.11 | 0.33 | 0.203 | 0.506 | 0.351 | 0.48 | 0.378 | 0.224 | 0.661 | 0.514 | 0.595 | 0.569 | 0.29 | 0.449 | 0.444 | 0.432 | 0.424 | 0.387 |
| NCI-H1395 | 0.992 | 1 | 1.07 | 0.861 | 0.898 | 0.459 | 0.371 | 0.444 | 0.469 | 0.414 | 1.06 | 1.07 | 0.964 | 1.02 | 0.95 | 0.824 | 0.709 | 0.799 | 0.661 | 0.686 |

Source: the supplement of paper PMC10307832
